“Also recorded” adds a separate entry of the source.
How the values were obtained:
mGAT2 = target: T1, mGAT2 (Mus musculus, UniProt P31651); test: [3H]GABA uptake assay, mGAT2; assay type: cell-based
T1 sequence (P31651 1-614): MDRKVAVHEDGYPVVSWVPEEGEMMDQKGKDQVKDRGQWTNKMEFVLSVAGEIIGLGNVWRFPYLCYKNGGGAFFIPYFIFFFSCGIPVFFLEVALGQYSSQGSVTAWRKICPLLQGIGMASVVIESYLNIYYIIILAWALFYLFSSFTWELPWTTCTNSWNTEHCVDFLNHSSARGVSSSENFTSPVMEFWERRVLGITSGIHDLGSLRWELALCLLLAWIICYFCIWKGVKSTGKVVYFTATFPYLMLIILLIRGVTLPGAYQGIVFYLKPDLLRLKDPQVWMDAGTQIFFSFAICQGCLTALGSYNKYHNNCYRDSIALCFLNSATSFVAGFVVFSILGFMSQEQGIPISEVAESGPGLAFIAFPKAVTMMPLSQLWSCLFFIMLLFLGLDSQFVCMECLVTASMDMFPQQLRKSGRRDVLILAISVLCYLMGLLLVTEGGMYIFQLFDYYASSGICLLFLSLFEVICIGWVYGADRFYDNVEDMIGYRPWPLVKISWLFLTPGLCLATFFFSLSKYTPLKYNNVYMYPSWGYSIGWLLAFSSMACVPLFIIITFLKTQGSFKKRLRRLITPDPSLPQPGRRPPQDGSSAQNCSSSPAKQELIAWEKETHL

mGAT1 = mGAT1 (Mus musculus, UniProt P31648); test: MS Binding Assay with NO 711 as marker
[1] = system: mice treated with scopolamine; test: Passive avoidance (PA) task, scopolamine-induced amnesia; assay type: in vivo; settings: 10 mg/kg i.p., vs scopolamine-treated group
Description: Animals and housing conditions
In all pharmacodynamic in vivo experiments, except for the Barnes maze (BM) task, adult male Albino Swiss (CD-1) mice weighing between 18 and 22 g and purchased from the Animal Breeding Farm of the Faculty of Pharmacy, Jagiellonian University Medical College were used. In BM task, C57BL/6J mice of the same weight (Animalab, Poland) were used.
Animals were housed in cages (10 mice per cage) at a constant temperature of 22 ± 2 °C, humidity of 55 ± 10%, and a light/dark (12:12) cycle (lights on at 7 AM). Before the experiments, the animals had unlimited access to food and water. Specified conditions for the maintenance of mice were ensured throughout the experiments, including tree bedding (Transwior, Poland) and cage enrichment (tunnels, nesting material, wooden igloos, etc.). […]
doses for behavioral assays. Lower doses were also assessed if at least one of them was […]
On the first day, during the acquisition trial (a conditioning phase), the test compound 6, scopolamine, and vehicle were injected. […] The latency between opening the guillotine gate and the mouse entering the black compartment was measured for each mouse. On the next day, during the retention (drug-off) trial, the mice were placed again into the white compartment for a 30-s habituation period, and the latency to enter the black compartment was measured for each mouse. […]

SH-SY5Y cells = test: Intracellular RONS, DCFH-DA probe, SH-SY5Y; assay type: cell-based, human; settings: IC50, ½ IC50, ¼ IC50, 1, 4, 24 h

Question: With `O[C@H](CNCC1CC1)[C@H](Cc1ccccc1)NC1c2ccccc2-c2ccccc21` [Compound 6] as the molecule, how does the IC50 (mGAT2) read?
Answer: 10.7 µM

Question: What about the Ki (mGAT1) of the same molecule?
Answer: 37.2 µM

Question: And the “step-through latency in the retention trial” value [1]?
Answer: significant differences were observed in the retention trial; also recorded: prolonged step‐thorough latency

Question: What about the “increase in intracellular RONS” value (SH-SY5Y cells) of the same molecule?
Answer: no significant increase

— paper PMC11796312, “Multifunctional, Fluorene‐Based Modulator of Cholinergic and GABAergic Neurotransmission as a Novel Drug Candidate for Palliative Treatment of Alzheimer's Disease” (Angewandte Chemie (International Ed. in English), 2024)
